Test results: patent US20200368280A1, “EPIGENETIC MODIFIERS FOR USE IN CELLULAR IMMUNOTHERAPY” (Viracta Therapeutics, Inc., priority 2018, published 2020)
Where two headings read alike, the source gives them in different places.

Columns and labels:
[1] = tested on: BALB/c splenocytes (FoxP3+, CD25+ T regulatory cells); assay: FACS analysis of splenocytes treated 24 hours with HDAC inhibitor; type: cell-based, BALB/c mice
Method: Test agents were added to each plate at the concentrations indicated in the table below and were incubated for 24 hours prior to FACS analysis. FACS analysis consisted of the following markers: live/dead, CD45, CD3, CD4, CD25 and FoxP3.

[2] = tested on: exhausted T cell population (CD8+ T cells) from PBMC; assay: T cell exhaustion assay, CEFT-exhausted PBMC restimulated with DC and CEFT; type: cell-based, human; conditions: for IFN-γ release by restimulated CD8+ T cells (percent IFNγ secreting CD8+ cells, FIG. 11) / CD8+ T cell proliferation (FIG. 9B, 9C): restimulated with CEFT; for CD8+ T cell proliferation (FIG. 9B, 9C): compared to CEFT alone
Method: FIGS. 12A, 12B and 12C show the effects of anti-PD-1 and nanatinostat treatment on IFN-γ, TNFα, and TGFβ. Isolated PBMC were exhausted with CEFT-stimulation for 10 days prior to being restimulated with moDC and CEFT peptide with compound treatment for an additional 4 days. Luminex analysis was performed and levels of IFN-γ (FIG. 12A), TNFα (FIG. 12B), and TGFβ (FIG. 12C). Dotted lines denote anti-PD-1 control treatment and vehicle control treatment as indicated.
To test whether nanatinostat can be used to reverse T cell exhaustion, whether by itself or in combination with PD-1, a standard T cell exhaustion assay was used. Peripheral Blood Mononuclear Cells (PBMC) were separated over a density gradient from 3 single human donor buffy coats. PBMC were stimulated with pooled pathogen-specific class I peptides (CEFT) to generate an exhausted T cell population. Cells were then re-stimulated with CEFT and autologous monocyte-derived dendritic cells for a further time before testing in a final re-stimulation assay using replenished DC and CEFT to monitor reversal of exhaustion. […] One dose of HDAC inhibitor was tested and a single dose of anti-PD-1 was used. An unstimulated control and a reference HDAC inhibitor were also plated. Cultures were pulsed with 3H-thymidine and proliferation assessed. Supernatants were also harvested for cytokine analysis by multiplex. Samples of cells were stained with an antibody panel directed against CD4, CD8, PD-1, IL-15R, TIGIT, CD45RO, CCR7, IFNγ and CD25 and characterized using flow cytometry in order to confirm their exhausted phenotype, and whether expression levels were altered following exposure to the combination therapies. PBMC were also phenotyped using the above panel at day 0 to determine the initial frequency of cell populations.

CT26 subcutaneous tumor = type: in vivo; conditions: nanatinostat 25 mg/kg orally daily, anti-mPD-1 10 mg/kg intraperitoneally
Method: (§1) Nanatinostat alone and in combination with anti-mPD-1 was evaluated in the CT26 subcutaneous tumor model in Balb/c mice. Animals were dosed orally with nanatinostat at 25 mg/kg daily, and intraperitoneally with anti-mPD-1 at 10 mg/kg on a bi-weekly schedule. 8 animals per group were selected and tumors were collected for FACS and qPCR analysis on Day 9, 12-13 hours post dose. The remaining animals continued to receive their respective treatments until Day 21.
144 female Balb/c mice (date of birth: Aug. 1, 2017) purchased from Jackson Laboratories were inoculated for the study. Animals were housed for a stabilization period of 5 days prior to inoculation. Animals were housed in individual HEPA ventilated cages (Innocage® IVC, Innovive USA). Fluorescent lighting was provided on a 12-hour cycle. Temperature and humidity was monitored and recorded daily and maintained to the maximum extent possible between 68-74° F. (20-23° C.) and 30-70% humidity, respectively. 2920X.10 18% soy irradiated rodent feed (Envigo) and autoclaved acidified water (pH2.5-3) was provided ad libitum.
CT26 cells were cultured as per ATCC's recommended culture protocol. For inoculation, cells were washed in PBS, counted, and resuspended in cold PBS at a concentration of 250,000 viable cells/100 μl. Cell suspension was kept on ice during transport to the vivarium. Cells were prepared for injections by withdrawing cells into a chilled 1 ml syringe fitted with a 26G 7/8 (0.5 mm×22 mm) needle.
Animals were prepared as needed for injection using standard approved anesthesia, and the mice were shaved prior to injection. One mouse at a time was immobilized and the site of injection was disinfected with an alcohol swab. 100 μl of the cell suspension was subcutaneously injected into the rear flank of the mouse. Mice were marked by ear tagging.
Animals were monitored daily for palpable tumors, or any changes in appearance or behavior. Once tumors were palpable, they were measured using calipers. Tumor volume was calculated using the following equation (longest diameter×shortest diameter^2)/2.

[3] = tested on: gene expression in CT26 tumors; assay: qPCR gene expression analysis of CT26 tumors on Day 9; type: in vivo, Balb/c mice; conditions: Day 9, tumors
Method: as §1
On Day 9, N=8/arm was harvested tumors for PD assessment. Half of each tumor was flash frozen for subsequent qPCR analysis. Fragments of flash frozen tumors were transferred in RLT PLUS buffer (Qiagen) and loaded into labelled and prefilled tubes with beads and homogenized for 60 seconds at maximum speed. RNA was extracted with AllPrep DNA/RNA Mini kit, purchased from Qiagen, according to the manufacturer's protocol. RNA quantity and purity was evaluated by Synergy 2 Multi-Mode Reader according to the Biotec Protocol. 750 ng total RNA from each sample was used to generate cDNA in a 20 μl reaction. The reaction was performed to the standard of Superscript III First-Strand Synthesis protocol by ThermoFisher by using Eppendorf Mastercycler Pro. […] Gene expression data was analyzed on the ViiA7 system using ABI 2.1 software to generate the raw data. […]

T cells in CT26 tumors = assay: FACS analysis of CT26 tumors on Day 9; type: in vivo, Balb/c mice
Method: as §1
On Day 9, N=8/arm were harvested tumors for PD assessment 12-13 hours post last dose. Half of each tumor was placed in transfer buffer for FACS analysis.

[4] = 1 uM, 24 hours, percentage ± SD
[5] = 100 nM, 24 hours, percentage ± SD
[6] = listed as head prints 'nM' (1 nM), 24 hours, percentage ± SD
[7] = combination vs anti PD-1 only, nanatinostat only vs vehicle

| Compound | CD45+ [1, 4] | IFN-γ release by restimulated CD8+ T cells (percent IFNγ secreting CD8+ cells, FIG. 11) [2] | inhibition of tumor growth (CT26 subcutaneous tumor; Day 3) | inhibition of tumor growth (CT26 subcutaneous tumor; Day 4) | inhibition of tumor growth (CT26 subcutaneous tumor; Day 7) | inhibition of tumor growth (CT26 subcutaneous tumor; Day 9) | inhibition of tumor growth (CT26 subcutaneous tumor; Day 9, listed as nanatinostat) | CD45+ [1, 5] | CD45+ CD3+ [1, 5] | CD45+ ([1]; 500 nM, 24 hours, percentage ± SD) | concentration at which the suppressive effect on FoxP3, CD25+ T cells was still seen ([1]; at least as low as) | CD45+ [1, 6] | CD45+ CD3+ CD4+ FoxP3+ [1, 6] | KLRC2 expression on NK cells (FIG. 8) [3] | CXCR3 expressing cell population in CD4+ T cells in tumors (FIG. 5A) (T cells in CT26 tumors; [7]) | CXCR3 expressing cell population in CD8+ T cells in tumors (FIG. 5B) (T cells in CT26 tumors; [7]) | CD8+ T-cell population in tumors (T cells in CT26 tumors; compared to the vehicle group) | T cell infiltration in tumors (FIG. 4) (T cells in CT26 tumors; compared to vehicle or anti-PD-1 group, p-value 0.007 for both) | cell viability (FIG. 10A, 10B) ([2]; compared to Entinostat) | CD8+ T cell proliferation (FIG. 9B, 9C) [2] |
| --- | --- | --- | --- | --- | --- | --- | --- | --- | --- | --- | --- | --- | --- | --- | --- | --- | --- | --- | --- | --- |
| Nc1ccccc1NC(=O)c1ccc(CNC(=O)OCc2cccnc2)cc1 [Entinostat, reference compound] | 99.1 ± 0.27% | reduced | – | – | – | – | – | – | – | – | – | – | – | – | – | – | – | – | – | – |
| O=C(NO)c1cnc(N2CC3C(C2)C3NCc2ccc3cc(F)ccc3n2)nc1 (centres unmarked) [Nanatinostat, 2-(6-{[(6-Fluoroquinolin-2-yl)methyl]amino}-3-azabicyclo[3.1.0]hex-3-yl)-N-hydroxypyrimidine-5-carboxamide] | 99.6 ± 0.17% | little effect | 16.20% | 23.31% | 38.94% | 33.81% | 33% | 99.6 ± 0.12% | 94 ± 0.83% | 99.5 ± 0.29% | ≤ 100 nM | 98.6 ± 0.36% | 12 ± 1.51% | increased | no significant difference | no significant difference | higher | significantly increased | well tolerated | negative effect |
| anti-PD-1 (Pembrolizumab): anti-PD-1 antibody used in the human T cell exhaustion assay [reference compound] | – | – | – | – | – | – | – | – | – | – | – | – | – | – | – | – | – | – | – | restored proliferation |
